Measurements reported in patent US9108921B2, “Therapeutic compounds and compositions” (AGIOS PHARMACEUTICALS, INC, priority 2014, dated 2015).

Columns and labels:
[1] = molecular target: PKR R510Q (Homo sapiens, UniProt P30613, R510Q); experiment: PKR Mutant Assay, AC50 against PKR R510Q; type: biochemical; settings: mutant PKR R510Q enzyme
Summary of the method: (§1)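 PK-LDH coupled assay, RT. Enzyme + cpd + PEP/NADH/LDH, 60 min pre-incubation, no ADP. ADP 0.22-1.65 mM to initiate; A340 kinetic read. Cpd 11 pts, 3-fold, 100 μM top.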

[2] = molecular target: PKR R532W (Homo sapiens, UniProt P30613, R532W); experiment: PKR Mutant Assay, AC50 against PKR R532W; type: biochemical; settings: mutant PKR R532W enzyme
Sequence of PKR R532W (P30613 whole entry R532W): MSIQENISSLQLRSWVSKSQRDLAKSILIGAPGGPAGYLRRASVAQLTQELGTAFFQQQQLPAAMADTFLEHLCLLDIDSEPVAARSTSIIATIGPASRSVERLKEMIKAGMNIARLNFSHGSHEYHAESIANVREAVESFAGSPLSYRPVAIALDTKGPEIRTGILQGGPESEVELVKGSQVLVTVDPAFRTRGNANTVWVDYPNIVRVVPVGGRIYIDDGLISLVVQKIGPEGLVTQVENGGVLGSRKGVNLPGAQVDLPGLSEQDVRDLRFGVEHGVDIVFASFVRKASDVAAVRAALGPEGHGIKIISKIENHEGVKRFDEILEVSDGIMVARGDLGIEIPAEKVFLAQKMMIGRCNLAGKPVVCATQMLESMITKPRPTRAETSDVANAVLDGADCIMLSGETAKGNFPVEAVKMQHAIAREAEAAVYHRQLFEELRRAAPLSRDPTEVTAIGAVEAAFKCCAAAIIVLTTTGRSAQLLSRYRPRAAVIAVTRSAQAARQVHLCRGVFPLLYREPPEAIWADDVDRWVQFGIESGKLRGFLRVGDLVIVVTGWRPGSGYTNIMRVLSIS
Summary of the method: as §1

[3] = molecular target: T1, PKR WT (Homo sapiens, UniProt P30613); experiment: PKR WT enzymatic AC50 assay; type: biochemical; settings: wild type PKR
T1 sequence (P30613 whole entry): as the sequence (P30613 whole entry R532W) above, with W532R counted along it
Summary of the method: as §1

[4] = molecular target: T1, PKR WT; experiment: PKR WT cell based AC50 assay; settings: wild type PKR

Sequence of PKR R510Q (P30613 whole entry R510Q): as the sequence (P30613 whole entry R532W) above, with R510Q, W532R counted along it

SMILES | AC50 [1] | AC50 [2] | AC50 [3] | AC50 [4]
O=C(c1ccc(NS(=O)(=O)c2cccc3cccnc23)cc1)N1CCC(O)(Cc2ccccn2)CC1 [Compound 189, N-(4-(4-hydroxy-4-(pyridin-2-ylmethyl)piperidine-1-carbonyl)phenyl)quinoline-8-sulfonamide] | 101 to 1000 nM | < 100 nM | < 100 nM | 101 to 1000 nM
Cc1ccc(C2(O)CCN(C(=O)c3ccc(NS(=O)(=O)c4cccc5cccnc45)cc3)CC2)c(Cl)c1 [Compound 190, N-[4-[4-(2-chloro-4-methyl-phenyl)-4-hydroxy-piperidine-1-carbonyl]phenyl]quinoline-8-sulfonamide] | 101 to 1000 nM | < 100 nM | < 100 nM | 101 to 1000 nM
O=C(c1ccc(NS(=O)(=O)c2cccc3cccnc23)cc1)N1CCC(O)(c2ncccc2Cl)CC1 [Compound 191, N-(4-(4-(3-chloropyridin-2-yl)-4-hydroxypiperidine-1-carbonyl)phenyl)quinoline-8-sulfonamide] | 101 to 1000 nM | < 100 nM | < 100 nM | < 100 nM
CS(=O)(=O)c1ccccc1C1(O)CCN(C(=O)c2ccc(NS(=O)(=O)c3cccc4cccnc34)cc2)CC1 [Compound 192, N-[4-[4-hydroxy-4-(2-methylsulfonylphenyl)piperidine-1-carbonyl]phenyl]quinoline-8-sulfonamide] | 1010 to 10000 nM | < 100 nM | < 100 nM | < 100 nM
O=C(c1ccc(NS(=O)(=O)c2cccc3cccnc23)cc1F)N1CCC(O)(c2ccccc2Cl)CC1 [Compound 193, N-(4-(4-(2-chlorophenyl)-4-hydroxypiperidine-1-carbonyl)-3-fluorophenyl)quinoline-8-sulfonamide] | 101 to 1000 nM | < 100 nM | < 100 nM | < 100 nM
O=C(c1ccc(NS(=O)(=O)c2cccc3cccnc23)cc1)N1CCC(O)(c2ccc(F)cc2)CC1 [Compound 194, N-(4-(4-(4-fluorophenyl)-4-hydroxypiperidine-1-carbonyl)phenyl)quinoline-8-sulfonamide] | 101 to 1000 nM | < 100 nM | < 100 nM | < 100 nM
CC(C)(C)C1(O)CCN(C(=O)c2ccc(NS(=O)(=O)c3cccc4cccnc34)cc2)CC1 [Compound 195, N-(4-(4-(tert-butyl)-4-hydroxypiperidine-1-carbonyl)phenyl)quinoline-8-sulfonamide] | 101 to 1000 nM | < 100 nM | < 100 nM | < 100 nM
O=C(c1ccc(NS(=O)(=O)c2cc(F)cc3cccnc23)cc1)N1CCC(O)(c2ccccc2)CC1 [Compound 196, 6-fluoro-N-(4-(4-hydroxy-4-phenylpiperidine-1-carbonyl)phenyl)quinoline-8-sulfonamide] | 101 to 1000 nM | < 100 nM | < 100 nM | 101 to 1000 nM
O=C(c1ccc(NS(=O)(=O)c2cccc3ccccc23)cc1)N1CCC(O)(c2ccccc2Cl)CC1 [Compound 197, N-(4-(4-(2-chlorophenyl)-4-hydroxypiperidine-1-carbonyl)phenyl)naphthalene-1-sulfonamide] | 101 to 1000 nM | < 100 nM | < 100 nM | 101 to 1000 nM
O=C(c1ccc(NS(=O)(=O)c2cccc3cccnc23)cc1)N1CCC(O)(c2cccc(C(F)(F)F)c2)CC1 [Compound 199, N-(4-(4-hydroxy-4-(3-(trifluoromethyl)phenyl)piperidine-1-carbonyl)phenyl)quinoline-8-sulfonamide] | 101 to 1000 nM | < 100 nM | < 100 nM | < 100 nM
CC(C)CC1(O)CCN(C(=O)c2ccc(NS(=O)(=O)c3ccc(F)c4cccnc34)cc2)CC1 [Compound 203, 5-fluoro-N-(4-(4-hydroxy-4-isobutylpiperidine-1-carbonyl)phenyl)quinoline-8-sulfonamide] | 101 to 1000 nM | < 100 nM | < 100 nM | < 100 nM
O=C(c1ccc(NS(=O)(=O)c2cccc3cccnc23)cc1)N1CCC(O)(CCC(F)F)CC1 [Compound 204, N-(4-(4-(3,3-difluoropropyl)-4-hydroxypiperidine-1-carbonyl)phenyl)quinoline-8-sulfonamide] | 101 to 1000 nM | < 100 nM | < 100 nM | < 100 nM
O=C(c1ccc(NS(=O)(=O)c2cccc3cccnc23)cc1)N1CCC(O)(c2ccncc2)CC1 [Compound 206, N-(4-(4-hydroxy-4-(pyridin-4-yl)piperidine-1-carbonyl)phenyl)quinoline-8-sulfonamide] | 1010 to 10000 nM | < 100 nM | < 100 nM | < 100 nM
Cc1cccc(CC2(O)CCN(C(=O)c3ccc(NS(=O)(=O)c4cccc5cccnc45)cc3)CC2)n1 [Compound 207, N-(4-(4-hydroxy-4-((6-methylpyridin-2-yl)methyl)piperidine-1-carbonyl)phenyl)quinoline-8-sulfonamide] | 101 to 1000 nM | < 100 nM | < 100 nM | 101 to 1000 nM
N#Cc1cc(NS(=O)(=O)c2cccc3cccnc23)ccc1C(=O)N1CCC(O)(c2ccccc2Cl)CC1 [Compound 209] | 101 to 1000 nM | < 100 nM | < 100 nM | < 100 nM
Cc1nc(C(=O)N2CCC(O)(c3ccccc3Cl)CC2)ccc1NS(=O)(=O)c1cccc2cccnc12 [Compound 210, N-(6-(4-(2-chlorophenyl)-4-hydroxypiperidine-1-carbonyl)-2-methylpyridin-3-yl)quinoline-8-sulfonamide] | 101 to 1000 nM | < 100 nM | < 100 nM | 101 to 1000 nM
COc1ncccc1C1(O)CCN(C(=O)c2ccc(NS(=O)(=O)c3cccc4cccnc34)cc2)CC1 [Compound 211, N-(4-(4-hydroxy-4-(2-methoxypyridin-3-yl)piperidine-1-carbonyl)phenyl)quinoline-8-sulfonamide] | 101 to 1000 nM | < 100 nM | < 100 nM | 101 to 1000 nM
O=C(c1ccc(NS(=O)(=O)c2cccc3scnc23)cc1)N1CCC(O)(CC2CCC2)CC1 [Compound 212, N-(4-(4-(cyclobutylmethyl)-4-hydroxypiperidine-1-carbonyl)phenyl)benzo[d]thiazole-4-sulfonamide] | 101 to 1000 nM | < 100 nM | < 100 nM | < 100 nM
CC(C)CC1(O)CCN(C(=O)c2ccc(NS(=O)(=O)c3cccc4nccnc34)cc2OC(F)F)CC1 [Compound 213, N-(3-(difluoromethoxy)-4-(4-hydroxy-4-isobutylpiperidine-1-carbonyl)phenyl)quinoxaline-5-sulfonamide] | 101 to 1000 nM | < 100 nM | < 100 nM | < 100 nM
CC(C)C1(O)CCN(C(=O)c2ccc(NS(=O)(=O)c3cccc4cccnc34)cc2)CC1 [Compound 214, N-(4-(4-hydroxy-4-isopropylpiperidine-1-carbonyl)phenyl)quinoline-8-sulfonamide] | 101 to 1000 nM | < 100 nM | < 100 nM | < 100 nM
O=C(c1ccc(NS(=O)(=O)c2cccc3scnc23)cc1)N1CCC(O)(c2ccccc2C(F)F)CC1 [Compound 215, N-(4-(4-(2-(difluoromethyl)phenyl)-4-hydroxypiperidine-1-carbonyl)phenyl)benzo[d]thiazole-4-sulfonamide] | 101 to 1000 nM | < 100 nM | < 100 nM | 101 to 1000 nM
O=C(c1ccc(NS(=O)(=O)c2cccc3cccnc23)cc1)N1CCC(O)(c2cccnc2F)CC1 [Compound 217, N-(4-(4-(2-fluoropyridin-3-yl)-4-hydroxypiperidine-1-carbonyl)phenyl)quinoline-8-sulfonamide] | 101 to 1000 nM | 101 to 1000 nM | < 100 nM | 101 to 1000 nM
O=C(c1ccc(NS(=O)(=O)c2cccc3cc(F)cnc23)cc1)N1CCC(O)(c2ccccc2)CC1 [Compound 218, 3-fluoro-N-(4-(4-hydroxy-4-phenylpiperidine-1-carbonyl)phenyl)quinoline-8-sulfonamide] | 101 to 1000 nM | < 100 nM | < 100 nM | < 100 nM
Cc1cc(C(=O)N2CCC(O)(c3cccc(F)c3F)CC2)ccc1NS(=O)(=O)c1ccc(F)c2cccnc12 [Compound 220, N-(4-(4-(2,3-difluorophenyl)-4-hydroxypiperidine-1-carbonyl)-2-methylphenyl)-5-fluoroquinoline-8-sulfonamide] | 101 to 1000 nM | < 100 nM | < 100 nM | 1010 to 10000 nM
O=C(c1ccc(NS(=O)(=O)c2cccc3cccnc23)c(Cl)c1)N1CCC(O)(c2ccccc2Cl)CC1 [Compound 222, N-(2-chloro-4-(4-(2-chlorophenyl)-4-hydroxypiperidine-1-carbonyl)phenyl)quinoline-8-sulfonamide] | 101 to 1000 nM | < 100 nM | < 100 nM | < 100 nM
O=C(c1ccc(NS(=O)(=O)c2cc(F)cc3cccnc23)cc1)N1CCC(O)(c2ccccc2Cl)CC1 [Compound 223, N-(4-(4-(2-chlorophenyl)-4-hydroxypiperidine-1-carbonyl)phenyl)-6-fluoroquinoline-8-sulfonamide] | 101 to 1000 nM | < 100 nM | < 100 nM | 101 to 1000 nM
O=C(c1ccc(NS(=O)(=O)c2cccc3ccc(F)nc23)cc1)N1CCC(O)(c2ccccc2Cl)CC1 [Compound 224, N-(4-(4-(2-chlorophenyl)-4-hydroxypiperidine-1-carbonyl)phenyl)-2-fluoroquinoline-8-sulfonamide] | 1010 to 10000 nM | < 100 nM | < 100 nM | 101 to 1000 nM
